Here are results for eight molecules from ChEMBL document CHEMBL2401674, “Inhibition of Candida albicans isocitrate lyase activity by cadiolides and synoilides from the ascidian Synoicum sp” (Bioorg Med Chem Lett, 2013).

Test [1] has as its system Candida albicans. The experiment in a line: Antifungal activity against Candida albicans SC5314 assessed as growth inhibition after 48 hrs in presence of 2% potassium acetate. In kind it is functional. The following applies: SC5314, 48 h.
In test [2] the test system is Candida albicans. The test can be described thus: Antifungal activity against Candida albicans SC5314 assessed as growth inhibition after 48 hrs in presence of 2% glucose. It is filed as functional. Particulars: SC5314, 48 h.
In test [3] the target is Isocitrate lyase (Candida albicans, UniProt Q9P8Q7). The experiment in a line: Inhibition of recombinant Candida albicans ATCC 10231 ICL using phenylhydrazine and isocitrate as substrate assessed as formation of glyoxylate phenylhydrazone after 30 mins by spectrophotometric analysis.
The subject of test [4] is Candida albicans. The test can be described thus: Downregulation of mRNA expression in icl-deficient Candida albicans MRC11 expressing ICL at 12.5 ug/ml after 4 hrs by RT-PCR analysis relative to control. In kind it is functional.
The subject of test [5] is Candida albicans. The test can be described thus: Downregulation of mRNA expression in wild type Candida albicans SC5314 at 12.5 ug/ml after 4 hrs by RT-PCR analysis relative to control. It is filed as functional.
The subject of test [6] is Candida albicans. The experiment in a line: Antifungal activity against icl-deficient Candida albicans MRC11 expressing ICL assessed as growth inhibition at 12.5 ug/ml after 3 days in presence of sodium acetate. It is filed as functional, organism-based.
Test [7] has as its system Candida albicans. The experiment in a line: Antifungal activity against icl-deficient Candida albicans MRC10 assessed as growth inhibition at 12.5 ug/ml after 3 days in presence of sodium acetate. In kind it is functional, organism-based.
For test [8], the system named is Candida albicans. The experiment in a line: Antifungal activity against wild type Candida albicans SC5314 assessed as growth inhibition at 12.5 ug/ml after 3 days in presence of sodium acetate. In kind it is functional, organism-based.
In test [9] the test system is Candida albicans. The test can be described thus: Antifungal activity against icl-deficient Candida albicans MRC11 expressing ICL assessed as growth inhibition at 12.5 ug/ml after 3 days in presence of glucose. It is filed as functional, organism-based.
Test [10] relates to Candida albicans. The experiment in a line: Antifungal activity against icl-deficient Candida albicans MRC10 assessed as growth inhibition at 12.5 ug/ml after 3 days in presence of glucose. In kind it is functional, organism-based.
The subject of test [11] is Candida albicans. The test can be described thus: Antifungal activity against wild type Candida albicans SC5314 assessed as growth inhibition at 12.5 ug/ml after 3 days in presence of glucose. In kind it is functional, organism-based.

The source made the active and inactive calls. The rule behind the calls is not given here.

Isocitrate lyase, sequence (Q9P8Q7 whole entry): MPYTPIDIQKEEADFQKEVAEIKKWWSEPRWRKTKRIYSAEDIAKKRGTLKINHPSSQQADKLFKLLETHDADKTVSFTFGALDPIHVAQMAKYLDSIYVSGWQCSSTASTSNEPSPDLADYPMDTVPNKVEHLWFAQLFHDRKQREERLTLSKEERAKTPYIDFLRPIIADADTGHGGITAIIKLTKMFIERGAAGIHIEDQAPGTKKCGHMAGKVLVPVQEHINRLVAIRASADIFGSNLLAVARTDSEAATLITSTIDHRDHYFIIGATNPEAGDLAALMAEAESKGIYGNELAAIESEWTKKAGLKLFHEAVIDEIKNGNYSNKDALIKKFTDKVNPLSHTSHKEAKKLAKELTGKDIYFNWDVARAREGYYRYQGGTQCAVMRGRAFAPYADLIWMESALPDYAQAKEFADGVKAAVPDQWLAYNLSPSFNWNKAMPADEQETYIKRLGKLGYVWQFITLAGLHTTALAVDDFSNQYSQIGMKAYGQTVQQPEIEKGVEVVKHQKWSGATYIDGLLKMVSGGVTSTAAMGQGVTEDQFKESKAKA

A word on the MIC: it is the lowest concentration found to suppress growth. As for `C[C@@H]1[C@H](O)[C@@H](C)/C=C/C=C/C=C/C=C/C=C/C=C/C=C/[C@H](O[C@@H]2O[C@H](C)[C@@H](O)[C@H](N)[C@@H]2O)C[C@@H]2O[C@](O)(C[C@@H](O)C[C@@H](O)[C@H](O)CC[C@@H](O)C[C@@H](O)CC(=O)O[C@H]1C)C[C@H](O)[C@H]2C(=O)O` [AMPHOTERICIN B], the minimum inhibitory concentration (MIC) in [1] and in test [2] was 1.56 µg/mL in each case.
A word on the IC50: it is the concentration needed to halve the response being measured. For `COc1ccc(/C=C2\OC(=O)C([C@@H](O)c3cc(Br)c(OC)c(Br)c3)=C2c2cc(Br)c(O)c(Br)c2)cc1`, the MIC in test [1] was 50 µg/mL; in test [2] it was greater than 200 µg/mL. The IC50 in [3] is 17.2 µM.
As to `O=C1O/C(=C\c2cc(Br)c(O)c(Br)c2)C(c2ccc(O)c(Br)c2)=C1C(=O)c1cc(Br)c(O)c(Br)c1` [CADIOLIDE E], the “fold change (FC)” value in test [4] and in [5] was 5 in each case. Also, the “growth inhibition (GI)” value in [6], in [7] and in test [8] was “Active” each time. In addition, the “growth inhibition (GI)” value in [9], in test [10] and in test [11] was “inactive” each time. For the same molecule, the results for the MIC in test [1] and in [2] were 12.5 µg/mL and greater than 200 µg/mL, respectively. Besides, the IC50 in [3] worked out at 7.62 µM.
With `COC(=O)/C(C(=O)c1cc(Br)c(O)c(Br)c1)=C(\C(=O)OC)c1cc(Br)c(O)c(Br)c1`, the MIC in test [1] is 100 µg/mL; in [2], greater than 200 µg/mL. Also, the IC50 in [3] was found to be 75.2 µM.
For the molecule `COc1c(Br)cc([C@H](O)C2=C(c3ccc(O)c(Br)c3)/C(=C/c3ccc(O)c(Br)c3)OC2=O)cc1Br` [CADIOLIDE G], the MIC was 50 µg/mL in test [1] and greater than 200 µg/mL in [2]. For the same molecule, the IC50 in [3] is 48.8 µM.
Taken in the same sequence, the figures for `COC(=O)C1=C(c2cc(Br)c(O)c(Br)c2)C(=O)OC1=C(c1cc(Br)c(O)c(Br)c1)c1cc(Br)c(O)c(Br)c1` [CADIOLIDE I] were 50 µg/mL, greater than 200 µg/mL and 10.4 µM.
As for `O=C(O)CC[N+](=O)[O-]`, the results for the MIC in test [1] and in [2] were 200 µg/mL and greater than 200 µg/mL, respectively. Also, in test [3], the IC50 stood at 13.9 µM.
Taken in the same sequence, the figures for `COC(=O)/C(C(=O)c1cc(Br)c(O)c(Br)c1)=C(\C(=O)OC)c1ccc(O)c(Br)c1` were 100 µg/mL, greater than 200 µg/mL and 122 µM.
